For 6 compounds, IC50 results are on record in ChEMBL document CHEMBL1141883 (J Med Chem, 2005).

Each structure is given as a SMILES string.

Assay [1] addresses Cyclin-dependent kinase 6 (Homo sapiens, UniProt Q00534). The assay is described as follows: Inhibition of human cyclin-dependent kinase 6 complex with a virus-encoded cyclin from herpesvirus saimiri (Vcyclin).
Assay [2] addresses Cyclin-dependent kinase 5/CDK5 activator 1 (Homo sapiens, UniProt Q00535). Description: Inhibition of Cyclin-dependent kinase 5-p25nck5a. In kind it is protein-complex assay.
The target of assay [3] is Glycogen synthase kinase-3 (Homo sapiens, UniProt P49840+P49841). The assay is described as follows: Inhibition of glycogen synthase kinase 3. In kind it is protein assay.
Assay [4] concerns the target Cyclin-dependent kinase 1/cyclin B (Homo sapiens, UniProt P06493). The assay is described as follows: Inhibition of cyclin-dependent kinase 1/cyclinB. In kind it is protein-complex assay.

Sequence of Cyclin-dependent kinase 6 (Q00534 whole entry): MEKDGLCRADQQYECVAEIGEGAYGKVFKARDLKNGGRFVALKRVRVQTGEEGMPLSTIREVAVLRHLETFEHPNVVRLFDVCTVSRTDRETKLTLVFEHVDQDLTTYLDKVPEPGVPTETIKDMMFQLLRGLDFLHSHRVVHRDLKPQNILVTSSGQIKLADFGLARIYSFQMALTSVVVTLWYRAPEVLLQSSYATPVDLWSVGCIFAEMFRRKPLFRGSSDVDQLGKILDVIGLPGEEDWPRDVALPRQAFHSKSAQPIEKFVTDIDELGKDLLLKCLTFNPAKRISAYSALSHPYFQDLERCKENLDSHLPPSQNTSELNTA
Sequence of Cyclin-dependent kinase 5/CDK5 activator 1 (Q00535 whole entry): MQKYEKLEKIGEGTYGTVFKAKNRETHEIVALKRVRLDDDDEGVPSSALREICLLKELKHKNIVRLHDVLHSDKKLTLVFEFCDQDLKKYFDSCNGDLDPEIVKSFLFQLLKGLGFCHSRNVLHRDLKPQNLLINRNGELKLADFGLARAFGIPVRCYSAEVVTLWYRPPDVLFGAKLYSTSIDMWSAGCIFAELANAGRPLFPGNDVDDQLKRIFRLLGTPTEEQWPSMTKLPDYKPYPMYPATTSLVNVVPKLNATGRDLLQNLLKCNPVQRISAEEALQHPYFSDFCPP
Sequence of Cyclin-dependent kinase 5/CDK5 activator 1 (Q15078 whole entry, further chain): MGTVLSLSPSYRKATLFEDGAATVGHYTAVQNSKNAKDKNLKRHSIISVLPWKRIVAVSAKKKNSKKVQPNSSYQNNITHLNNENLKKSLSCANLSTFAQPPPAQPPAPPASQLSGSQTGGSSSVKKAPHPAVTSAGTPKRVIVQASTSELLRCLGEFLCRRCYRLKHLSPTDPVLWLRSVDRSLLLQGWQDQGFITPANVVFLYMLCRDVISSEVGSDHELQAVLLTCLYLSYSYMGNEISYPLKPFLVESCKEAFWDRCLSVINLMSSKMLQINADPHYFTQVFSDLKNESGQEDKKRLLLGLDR

Consider `O=c1cc(-c2ccc(O)c(O)c2)oc2cc(O)cc(O)c12` [LUTEOLIN], for which the IC50 is above 300 µM in assay [1], 3.8 µM in assay [2] and 0.8 µM in assay [3].
In the case of `O=c1cc(-c2ccccc2)oc2cc(O)cc(O)c12` [CHRYSIN], the IC50 in assay [4] amounted to 7.1 µM; in assay [1], 6 µM; in assay [2] it was 3.1 µM; in assay [3], 7.2 µM.
As to `O=c1c(O)c(-c2ccc(O)cc2)oc2cc(O)cc(O)c12` [KAEMPFEROL], the IC50 in assay [4] was found to be 41 µM; in assay [1], 22 µM; in assay [2], 51 µM; in assay [3], 3.5 µM.
For the compound `O=c1c(O)c(-c2ccc(O)c(O)c2)oc2cc(O)cc(O)c12` [QUERCETIN], the IC50 in assay [4] stood at 75 µM; in assay [1], 25 µM; in assay [3], 2.1 µM.
Regarding `O=c1c(O)c(-c2ccc(O)c(O)c2)oc2cc(O)ccc12` [FISETIN], the values for the IC50 in assay [4], in assay [2] and in assay [3] were 0.79 µM, 0.57 µM and 0.42 µM, respectively.
For the compound `O=c1cc(-c2ccc(O)cc2)oc2cc(O)cc(O)c12` [APIGENIN], the IC50 in assay [4] turned out to be 4 µM; in assay [1], 1.7 µM; in assay [2], 1.6 µM; in assay [3] it was 1.4 µM.

In general, IC50 refers to the concentration needed to halve the response being measured.
